ChEMBL document CHEMBL1147060
The source made the active and inactive calls.

Columns and labels:
BMMC [1] = assay: Inhibition of antigen-induced histamine release in Tec-deficient BMMC at 1 uM after 30 mins; assay type: functional, cell-based; conditions: Mus musculus
Homo sapiens = organism: Homo sapiens; assay: Inhibition of antigen-induced histamine release in human basophils at 1 uM after 30 mins; assay type: functional
U-937 [2] = assay: Inhibition of basal TNFalpha release in human U937 cells at 2 uM after 1 hr by ELISA; assay type: functional, cell-based
U-937 [3] = assay: Decrease in LPS-induced TNFalpha release in human U937 cells after 1 hr by ELISA; assay type: functional, cell-based
BMMC [4] = assay: Inhibition of antigen-induced histamine release in wild-type BMMCs at 1 uM after 30 mins; assay type: functional, cell-based; conditions: Mus musculus
U-937 [5] = assay: Decrease in basal TNFalpha release in human U937 cells after 1 hr by ELISA; assay type: functional, cell-based
U-937 [6] = assay: Inhibition of LPS-induced TNFalpha release in human U937 cells at 2 uM after 1 hr by ELISA; assay type: functional, cell-based
Mast cell = assay: Inhibition of antigen-induced IL6 secretion in mouse mast cells at 1 uM after 24 hrs by ELISA; assay type: functional, cell-based

Measured: Activity

Cc1nc(Nc2ncc(C(=O)Nc3c(C)cccc3Cl)s2)cc(N2CCN(CCO)CC2)n1
inactive: U-937 [2] | U-937 [6]
active: all other assays above
